# Results published in ChEMBL document CHEMBL5096164, “In Vivo Profiling of a Natural Alkaloid, Anatabine, in Rodents: Pharmacokinetics and Anti-Inflammatory Efficacy” (J Nat Prod, 2021).
# The source made the active and inactive calls. The rule behind the calls is not given here.
# Legend:
# Mus musculus [1] = assay: Antiinflammatory activity LPS induced mouse model assessed as reduction in interferon gamma induced protein 10 at 1 to 5 mg/kg, ip preincubated for 1 hr followed by LPS stimulation and measured after 2 hrs by luminex xMAP bead based assay; assay type: functional, organism-based; conditions: dose 1-5 mg/kg, time 3.0 hrs
# [2] = Half life in Wistar rat plasma at 2 mg/kg, iv administered as bolus dose measured after 5 to 360 mins by LC-MS/MS analysis; assay type: ADME, organism-based; conditions: time 5-360 min
# [3] = Drug uptake in rat aerosol at 261.4 microg/L via inhalation measured for 30 mins; assay type: ADME; conditions: in vivo, inhaled_or_intranasal, 0.5 h, dose 261.4 µg/L
# [4] = AUC in Wistar rat plasma at 2 mg/kg, iv administered as bolus dose measured after 5 to 360 mins by LC-MS/MS analysis; assay type: ADME, organism-based; set-up: time lower 5 min, dose 2 mg/kg, time upper 360 min, route iv
# [5] = Clearance in Wistar rat plasma at 5 mg/kg, ip administered as bolus dose measured after 5 to 360 mins by LC-MS/MS analysis; assay type: ADME, organism-based; conditions: time 5-360 min
# Mus musculus [6] = assay: Antiinflammatory activity LPS induced mouse model assessed as reduction in macrophage inflammatory protein-1 beta at 1 to 5 mg/kg, ip preincubated for 1 hr followed by LPS stimulation and measured after 2 hrs by luminex xMAP bead based assay; assay type: functional, organism-based; conditions: dose 1-5 mg/kg, time 3.0 hrs
# [7] = Drug uptake in rat aerosol at medium dose via inhalation measured for 30 mins; assay type: ADME; conditions: in vivo, inhaled_or_intranasal, 0.5 h, route inh
# [8] = Bioavailability in Wistar rat plasma at 2 mg/kg, iv administered as bolus dose measured after 5 to 360 mins by LC-MS/MS analysis; assay type: ADME, organism-based; conditions: time 5-360 min
# [9] = Drug concentration in carrageenan-induced paw edema in rat respiratory tract at 254.3 microg/L via inhalation measured for 60 mins; assay type: ADME; conditions: inhaled or intranasal, route inh, dose 254.3 µg/L, read-out: Drug uptake
# Mus musculus [10] = assay: Antiinflammatory activity in ip induced Wistar mouse model of carrageenan-induced paw edema assessed as reduction in paw thickness administered 10 mins prior to carrageenan induction and measured upto 5 hrs; assay type: functional, organism-based; conditions: dose 1-5 mg/kg, time 310.0 min, DDE = dose-dependent effect
# [11] = Drug concentration in carrageenan-induced paw edema in rat respiratory tract at 77.9 microg/L via inhalation measured for 30 mins; assay type: ADME; conditions: inhaled or intranasal, route inh, dose 77.9 µg/L, read-out: Drug uptake
# [12] = Half life in C57BL/6 mouse plasma at 2 mg/kg, ip measured after 3 to 240 mins by LC-MS/MS analysis; assay type: ADME, organism-based; conditions: time 3-240 min
# Mus musculus [13] = assay: Antiinflammatory activity LPS induced mouse model assessed as reduction in IL-7 at 1 to 5 mg/kg, ip preincubated for 1 hr followed by LPS stimulation and measured after 2 hrs by luminex xMAP bead based assay; assay type: functional, organism-based; conditions: dose 1-5 mg/kg, time 3.0 hrs
# Mus musculus [14] = assay: Antiinflammatory activity in ip /LPS induced mouse model assessed as reduction in tumor necrosis factor alpha level in plasma preincubated for 1 hr followed by LPS stimulation and measured after 2 hrs by ELISA method; assay type: functional, organism-based; conditions: dose 1-5 mg/kg, DDE = dose-dependent effect
# [15] = Clearance in Wistar rat plasma at 2 mg/kg, iv administered as bolus dose measured after 5 to 360 mins by LC-MS/MS analysis; assay type: ADME, organism-based; conditions: time 5-360 min
# [16] = Volume of distribution at steady state in Wistar rat plasma at 1 mg/kg, iv administered as bolus dose measured after 5 to 360 mins by LC-MS/MS analysis; assay type: ADME, organism-based; conditions: time 5-360 min, read-out: Vdss
# [17] = AUC in C57BL/6 plasma at 2 mg/kg, ip measured after 3 to 240 mins by LC-MS/MS analysis; assay type: ADME, organism-based; set-up: time 3-240 min, dose 2 mg/kg, route ip; conditions: C57BL/6, mouse
# [18] = Half life in Wistar rat plasma at 1 mg/kg, iv administered as bolus dose measured after 5 to 360 mins by LC-MS/MS analysis; assay type: ADME, organism-based; conditions: time 5-360 min
# [19] = Cmax in C57BL/6 plasma at 2 mg/kg, ip measured after 3 to 240 mins by LC-MS/MS analysis; assay type: ADME, organism-based; set-up: time 3-240 min, dose 2 mg/kg, route ip; conditions: C57BL/6, mouse
# [20] = Drug uptake in MOG (35 to 55 residues)-induced experimental autoimmune encephalomyelitis mouse aerosol at 25 microg/L by LC-MS/MS analysis; assay type: ADME; conditions: in vivo, inhaled_or_intranasal, dose 25 µg/L
# Mus musculus [21] = assay: Antiinflammatory activity LPS induced mouse model assessed as reduction in IL-6 level in plasma at 5 mg/kg, ip preincubated for 1 hr followed by LPS stimulation and measured after 2 hrs by ELISA method relative to control; assay type: functional; set-up: scale not given: the % may be the effect or the level left
# [22] = Drug uptake in rat aerosol at 2.5 microg/L via inhalation measured for 30 mins; assay type: ADME; conditions: in vivo, inhaled_or_intranasal, 0.5 h, route inh, dose 2.5 µg/L
# [23] = Clearance in Wistar rat plasma at 1 mg/kg, iv administered as bolus dose measured after 5 to 360 mins by LC-MS/MS analysis; assay type: ADME, organism-based; conditions: in vivo, time 5-360 min
# [24] = Clearance in C57BL/6 mouse plasma at 2 mg/kg, ip measured after 3 to 240 mins by LC-MS/MS analysis; assay type: ADME, organism-based; conditions: time 3-240 min
# Mus musculus [25] = assay: Antiinflammatory activity ip /LPS induced mouse model assessed as upregulation of IL-10 level preincubated for 1 hr followed by LPS stimulation and measured after 2 hrs by luminex xMAP bead based assay; assay type: functional, organism-based; conditions: dose 1-5 mg/kg, time 3.0 hrs, DDE = dose-dependent effect
# [26] = Drug uptake in MOG (35 to 55 residues)-induced experimental autoimmune encephalomyelitis mouse aerosol at 50 microg/L by LC-MS/MS analysis; assay type: ADME; conditions: in vivo, inhaled_or_intranasal, dose 50 µg/L
# [27] = Half life in Wistar rat plasma at 5 mg/kg, ip administered as bolus dose measured after 5 to 360 mins by LC-MS/MS analysis; assay type: ADME, organism-based; conditions: time 5-360 min
# [28] = Cmax in C57BL/6 brain at 2 mg/kg, ip measured after 3 to 240 mins by LC-MS/MS analysis; assay type: ADME, organism-based; set-up: time upper 240 min, time lower 3 min, dose 2 mg/kg, route ip; conditions: C57BL/6, mouse
# Rattus norvegicus = assay: Antiinflammatory activity in carrageenan-induced paw edema rat model assessed as recovery of adverse effect at tremor at 5 mg/kg, ip or 20 mg/kg administered daily via whole body inhalation; assay type: functional, organism-based
# [29] = Drug uptake in MOG (35 to 55 residues)-induced experimental autoimmune encephalomyelitis unimmunized mouse in plasma at 50 microg/L by LC-MS/MS analysis; assay type: ADME; conditions: dose 50 µg/L
# Mus musculus [30] = assay: Antiinflammatory activity LPS induced mouse model assessed as reduction in macrophage inflammatory protein-1alpha at 1 to 5 mg/kg, ip preincubated for 1 hr followed by LPS stimulation and measured after 2 hrs by luminex xMAP bead based assay; assay type: functional, organism-based; conditions: dose 1-5 mg/kg, time 3.0 hrs
# [31] = Bioavailability in rat at 2.73 mg/kg via inhalation; assay type: ADME, organism-based; conditions: in vivo, inhaled or intranasal, route inh
# [32] = Tmax in C57BL/6 plasma at 2 mg/kg, ip measured after 3 to 240 mins by LC-MS/MS analysis; assay type: ADME, organism-based; conditions: C57BL/6, mouse, time 3-240 min
# Mus musculus [33] = assay: Antiinflammatory activity LPS induced mouse model assessed as reduction in IL-1 beta at 1 to 5 mg/kg, ip preincubated for 1 hr followed by LPS stimulation and measured after 2 hrs by luminex xMAP bead based assay; assay type: functional, organism-based; conditions: dose 1-5 mg/kg, time 3.0 hrs
# [34] = Half life in rat at 2.73 mg/kg via inhalation; assay type: ADME, organism-based; conditions: in vivo, inhaled or intranasal, route inh
# [35] = Half life in rat at 0.40 mg/kg via inhalation; assay type: ADME, organism-based; conditions: in vivo, inhaled or intranasal, route inh, dose 0.4 mg/kg
smiles,measurement,setting,value
C1=CCC(c2cccnc2)NC1 (stereo unspecified),Activity,Mus musculus [1],Active
same,half-life,[2],1.39 h
same,Drug uptake,[3],250 µg/L
same,AUC,[4],2730 ng·h/mL
same,CL/F,[5],8.11 mL/min/kg
same,Activity,Mus musculus [6],Active
same,Drug uptake,[7],25 µg/L
same,bioavailability,[8],68.6%
same,concentration at 1 h,[9],5.34 ng/mL
same,Activity,Mus musculus [10],Dde
same,concentration at 0.5 h,[11],0.87 ng/mL
same,half-life,[12],0.21 h
same,Activity,Mus musculus [13],Active
same,Activity,Mus musculus [14],Dde
same,clearance,[15],8.11 mL/min/kg
same,Vd,[16],1.23 L/kg
same,AUC,[17],430 ng·h/mL
same,half-life,[18],1.14 h
same,Cmax,[19],1370 ng/mL
same,Drug uptake,[20],24.8 ng/mL
same,Activity,Mus musculus [21],47.2%
same,Drug uptake,[22],2.5 µg/L
same,CL,[23],0.00811 mL/min/kg
same,CL/F,[24],78.6 mL/min/kg
same,Activity,Mus musculus [25],Dde
same,Drug uptake,[26],50.6 ng/mL
same,half-life,[27],1.39 h
same,Cmax,[28],3380 ng/mL
same,Activity,Rattus norvegicus,Active
same,Cp,[29],1202.5 ng/mL
same,Activity,Mus musculus [30],Active
same,bioavailability,[31],56.4%
same,Tmax,[32],1.8 min
same,Activity,Mus musculus [33],Active
same,half-life,[34],3.64 h
same,half-life,[35],3.84 h
